Measurements from patent US9139811B2, “Composition for suspension culturing of stem cells” (SEOUL NATIONAL UNIVERSITY HOSPITAL, priority 2011, dated 2015).

Assays:
[1] = system: Human mesenchymal stem cells (BM-MSC); assay: Suspension culture of human mesenchymal stem cells, trypan blue staining and cell counting; format: cell-based; settings: for cell aggregation / apoptosis of non-aggregated single cells: 24 hours of culture, FIG. 2; for apoptosis of non-aggregated single cells: trypan blue staining
Method: Human mesenchymal stem cells (Lonza, Switzerland) were cultured in 10% FBS-containing α-MEM medium such that no contact inhibition occurred. […] Then, the cells were treated with 0.25% trypsin/EDTA and allowed to stand in a CO2 incubator at 37° C. for 30 seconds. The cells that dropped into the tube were collected, and the cells remaining in the dish were completely collected with 10% FBS-containing α-MEM, and the collected cells were centrifuged at 1500 rpm for 5 minutes. The supernatant medium was removed by suction, and the precipitated cells were suspended in 5 ml of EB medium (80% DMEM/F12 80%+20% serum replacement) and then centrifuged at 1500 rpm for 5 minutes. Then, the cells were suspended in 10 ml of medium (containing or not containing 20 μM Y27632) in a 100 Φ Petri dish at a density of 2.0×10^6 cells. After 24 hours, the aggregated cells were stained with trypan blue, and then counted with an automated cell counter (Invitrogen).

[2] = system: HGF (hepatocyte growth factor); assay: Suspension culture of single cells using E-cadherin blocker: HGF expression; format: cell-based, human; settings: aggregation inhibited with E-cadherin blocking antibody, Y-27632 for 24 hours, FIG. 9
Excerpt: (§1) In vivo conditions in which treatment of cells is required are mostly ischemic anoxic anaerobic conditions in which the cells are injured or broken, and one of major factors in the conditions is HGF (hepatocyte growth factor). Thus, in order to examine the expression level of the hepatocyte growth factor HGF, the supernatant was collected from the cell sample and analyzed by ELISA (enzyme-linked immunosorbent assay) using a HGF-specific antibody according to the manufacturer's protocol.
In order to use E-cadherin to induce single-cell culture during suspension culture, the cells were treated with an E-cadherin blocker to inhibit the induction of cell aggregation during suspension culture. Specifically, human mesenchymal stem cells were cultured in 10% FBS-containing α-MEM medium such that no contact inhibition occurred. When a confluence of about 80% was reached, the medium was removed by suction for cell counting, and the cells were washed with PBS (calcium-free and magnesium-free). Then, the cells were treated with 0.25% trypsin/EDTA and allowed to stand in a CO2 incubator at 37° C. for 30 seconds. The cells that dropped into the tube were collected, and the cells remaining in the dish were completely collected with 10% FBS-containing α-MEM, and the collected cells were centrifuged at 1500 rpm for 5 minutes. […]

[3] = system: BCL-XL; assay: Western blotting of BCL-XL expression in suspension-cultured cells; format: cell-based, human; settings: Y27632-treated vs control (naive) cells, FIG. 3
Method: (§2) In order to measure a change in the expression of an anti-apoptosis factor in a cell sample, the expression level of BCL-XL was measured at the protein level. In addition, the cells were collected after suspension culture for 6 hours, and the degree of phosphorylation of ERK which is involved in the activity of the cells was evaluated. Specifically, the cells were lysed with a reducing agent [Lysis PreMix (4° C. stock)+NaF ([…], ×100)+orthovanadate (200 mM, ×200)+proteinase inhibitor cocktail (1 tablet/10 ml)], and then electrophoresed on SDS-polyacrylamide gel. Then, the cells were transferred to a PVDF transfer membrane (Millipore), after which a change in the expression of the protein was examined by a primary antigen-antibody reaction using BCL-xl (Santa Cruz Biotechnology) and a secondary antigen-antibody reaction using anti-rabbit IgG and anti-mouse IgG.

[4] = system: ERK (extracellular signal-regulated kinase); assay: Western blotting of ERK phosphorylation in suspension-cultured cells; format: cell-based, human; settings: suspension culture for 6 hours, Y27632-treated vs control (naive) cells, FIG. 4
Method: as §2

[5] = system: HGF (hepatocyte growth factor); assay: HGF ELISA of culture supernatant; format: cell-based, human; settings: vs untreated control cells and EDTA-treated control cells, FIG. 5
Excerpt: as §1

[6] = system: Human mesenchymal stem cells; assay: Suspension culture of human mesenchymal stem cells under anoxic anaerobic condition and cell counting; format: cell-based; settings: for number of dead cells / number of viable cells / total number of cells / viability: anaerobic condition, 20 μM Y27632
Method: Human mesenchymal stem cells were cultured in 10% FBS-containing α-MEM medium such that no contact inhibition occurred. […] Then, the cells were treated with 0.25% trypsin/EDTA and allowed to stand in a CO2 incubator at 37° C. for 30 seconds. The cells that dropped into the tube were collected, and the cells remaining in the dish were completely collected with 10% FBS-containing α-MEM, and the collected cells were centrifuged at 2000 rpm for 5 minutes. The supernatant medium was removed by suction, and the precipitated cells were suspended in 5 ml of EB medium (80% DMEM/F12 80%+20% serum replacement) and then centrifuged at 1500 rpm for 5 minutes. Then, the cells were suspended in 10 ml of medium (containing or not containing 20 μM Y27632) in a 100 0 Petri dish at a density of 2.0×10^6 cells. Then, the cells were placed in an anoxic pack (BD Science) to induce an anoxic anaerobic condition. […]

[7] = 20 μM Y27632, suspension culture 24 hours, trypan blue

| Compound | cell aggregation [1] | apoptosis of non-aggregated single cells [1] | HGF efficiency (expression level of HGF) [2] | expression of the anti-apoptosis factor BCL-XL [3] | phosphorylation of ERK [4] | expression level of HGF [5] | total number of cells ([1]; 20 μM Y27632, suspension culture 24 hours) | number of dead cells [1, 7] | number of viable cells [1, 7] | viability [1, 7] [%] | number of dead cells ([6]; 6 hours of culture) | number of viable cells ([6]; 6 hours of culture) | total number of cells ([6]; 6 hours of culture) | viability ([6]; 6 hours of culture) [%] | number of dead cells ([6]; 24 hours of culture) | number of viable cells ([6]; 24 hours of culture) | total number of cells ([6]; 24 hours of culture) | viability ([6]; 24 hours of culture) [%] | apoptosis of single cells ([6]; anoxic anaerobic condition, FIG. 7) |
| --- | --- | --- | --- | --- | --- | --- | --- | --- | --- | --- | --- | --- | --- | --- | --- | --- | --- | --- | --- |
| O=C(O)CN(CCN(CC(=O)O)CC(=O)O)CC(=O)O [EDTA] | no cell aggregation occurred | apoptosis occurred in all the cells | – | – | – | – | – | – | – | – | – | – | – | – | – | – | – | – | – |
| C[C@@H](N)[C@H]1CC[C@H](C(=O)Nc2ccncc2)CC1.Cl.Cl (relative stereo) [Y27632, trans-4-[(1R)-1-Aminoethyl]-N-4-pyridinyl-cyclohexanecarboxamide, 2HCl] | further increased | prevented | increased | significantly increased | significantly increased | significantly higher | 1.8×10^6 | 0.54×10^6 | 1.26×10^6 | 70 | 2.4×10^5 | 1.2×10^6 | 1.6×10^6 | 84 | 1.6×10^5 | 1.24×10^6 | 1.4×10^6 | 90 | did not undergo apoptosis |
